In patent US9820943B2, “Micronized amoxicillin” (DSM SINOCHEM PHARMACEUTICALS NETHERLANDS B.V., priority 2013, dated 2017):
Each block holds one compound with its values, some of them ahead of it.

Key:
Assay type in all cases: physicochemical
[1] = Contact angle by sessile drop method (water); conditions: ambient conditions, trihydrate
Procedure: Contact angles of amoxicillin trihydrate powder samples were measured by the sessile drop method using an Drop Shape Analyzer instrument (FTA 1000, First Ten Angstrom, Virginia, USA). Powder samples were mounted on double sided adhesive tape adhered to a glass slide and excess powder was removed by tapping the slide. A drop of probe liquid (water) was dispersed onto the sample surface and video images were captured by the FTA image analyzer. The contact angle was calculated by the instrument by fitting a mathematical expression to the shape of the drop followed by calculating the slope of the tangent to the drop at the liquid-solid-vapor interface line. The surface tension of ultrapure ELGA laboratory water was measured to be 73±0.5 mN·m^−1 at 25° C. All measurements were performed in air under ambient conditions and an average of four measurements was reported in the below Examples.
(§1) Parameters operated were: • Augar Speed: 5-90 rpm • Primary Air Pressure: 2-8 kg·cm^−2 • Secondary Air Pressure: 4-10 kg·cm^−2 The surface area (in triplicate), average particle size and contact angle (in quadruplicate) were determined as outlined in the General section. The purity of the amoxicillin trihydrate samples was 99.4±0.3% and were void of dichloromethane, isopropanol, pivalic acid and triethyl amine.

[2] = Powder dissolution, USP/NF paddle method with HPLC analysis; conditions: 500 mg in 900 mL water, 37 °C, 75 rpm; for Amoxicillin released in solution Mean: mean of 3; for Amoxicillin released in solution #1: replicate #1; for Amoxicillin released in solution #2: replicate #2; for Amoxicillin released in solution #3: replicate #3
Procedure: Dissolution analysis of amoxicillin trihydrate powder samples was carried out using the USP/NF paddle method at a rotational speed of 75 rpm. Ultrapure ELGA laboratory water (900 mL) was used as dissolution medium. Media were equilibrated to 37.0±0.5° C. prior to dissolution. Amoxicillin trihydrate sample powder (500 mg) was directly added to the dissolution apparatus (Electrolab USP-24, India). Samples were collected at 0, 1, 3, 5, 10, 15, 30, 60 and 90 min, filtered through 0.2 μm filters and analyzed by HPLC. Dissolution profiles were constructed by plotting the percentage amoxicillin released against time.
The HPLC system (Shimadzu Corporation, Kyoto, Japan) comprised of an SCL-10A VP system controller, LC-10AT VP liquid chromatograph, FCV-10AL VP flow control valve, DGU-14A degasser, SIL-10AD VP auto-injector, CTO-10AS VP column oven, SPD-M20A prominence diode array (PDA) detector and data acquisition Class-VP 6.10 software. The HPLC method was adopted from the United States Pharmacopoeia (USP). The method was validated for linearity, precision, accuracy and intra- and inter-day variability. The mobile phase was 50 mM monobasic potassium phosphate:methanol (96:4, v/v, pH 5.0). All analyses were carried out using Lichrospher® 100 RP-18e analytical column (5 μm, Merck KGaA, Darmstadt, Germany) under isocratic conditions at a flow rate of 1.0 mL·min^−1 at 25° C. with 20 μL injection volume. Effluent was monitored at a wavelength of 230 nm. Samples for calibration curve generation were prepared in 50 mM monobasic potassium phosphate:methanol 1:1 (v/v) proportion at a concentration range of 1 to 600 μg·mL^−1.
The three non-micronized (i.e. entries 1-3 of Table 1) and micronized (i.e. entries 4-6 of Table 1) amoxicillin trihydrate samples of Example 1 were subjected to a powder dissolution test (in triplicate) as outlined in the General section.

[3] = Particle size distribution by laser diffraction (Malvern); conditions: trihydrate
Procedure: Particle size distribution values D10, D50, D90 and D100 were determined using laser diffraction applying Malvern equipment. A suitable apparatus for determining D10, D50, D90 and D100 is a Malvern particle sizer 2600 C or a Malvern Zeta Sizer.
as §1

[4] = Specific powder surface area by nitrogen gas sorption (BET); conditions: triplicate, trihydrate
Procedure: Specific powder surface area was determined using nitrogen gas sorption (Smartsorb, Smart Instruments, Mumbai, India). Prior to measurements, samples were regenerated by degassing to remove moisture and contamination. The regenerated sample was dipped in liquid nitrogen and the quantity of the adsorbed gas was measured using a thermal conductivity detector and subsequently integrated using an electronic circuit in terms of counts. The instrument was calibrated by injecting a known quantity of nitrogen. The measured parameters were subsequently used to calculate the surface area of the sample by employing the adsorption theories of Brunauer, Emmett and Teller (BET).
as §1

- Contact Angle Mean ± SD (n = 4) [1]: 97.89 ± 1.22
- Amoxicillin released in solution Mean ([2]; 0 min): 0%
- Amoxicillin released in solution #1 ([2]; 0 min): 0%
- Amoxicillin released in solution #2 ([2]; 0 min): 0%
- Amoxicillin released in solution #3 ([2]; 0 min): 0%
- Amoxicillin released in solution Mean ([2]; 1 min, trihydrate): 59.93%
- Amoxicillin released in solution #1 ([2]; 1 min, trihydrate): 58.56%
- Amoxicillin released in solution #2 ([2]; 1 min, trihydrate): 62.91%
- Amoxicillin released in solution #3 ([2]; 1 min, trihydrate): 58.32%
- Amoxicillin released in solution Mean ([2]; 3 min, trihydrate): 77.98%
- Amoxicillin released in solution #1 ([2]; 3 min, trihydrate): 78.61%
- Amoxicillin released in solution #2 ([2]; 3 min, trihydrate): 80.12%
- Amoxicillin released in solution #3 ([2]; 3 min, trihydrate): 75.20%
- Amoxicillin released in solution Mean ([2]; 5 min, trihydrate): 82.14%
- Amoxicillin released in solution #1 ([2]; 5 min, trihydrate): 83.91%
- Amoxicillin released in solution #2 ([2]; 5 min, trihydrate): 82.77%
- Amoxicillin released in solution #3 ([2]; 5 min, trihydrate): 79.73%
- Amoxicillin released in solution Mean ([2]; 10 min, trihydrate): 86.84%
- Amoxicillin released in solution #1 ([2]; 10 min, trihydrate): 89.18%
- Amoxicillin released in solution #2 ([2]; 10 min, trihydrate): 88.59%
- Amoxicillin released in solution #3 ([2]; 10 min, trihydrate): 82.76%
- Amoxicillin released in solution Mean ([2]; 15 min, trihydrate): 89.32%
- Amoxicillin released in solution #1 ([2]; 15 min, trihydrate): 90.98%
- Amoxicillin released in solution #2 ([2]; 15 min, trihydrate): 92.05%
- Amoxicillin released in solution #3 ([2]; 15 min, trihydrate): 84.94%
- Amoxicillin released in solution Mean ([2]; 30 min, trihydrate): 96.72%
- Amoxicillin released in solution #1 ([2]; 30 min, trihydrate): 94.78%
- Amoxicillin released in solution #2 ([2]; 30 min, trihydrate): 99.20%
- Amoxicillin released in solution #3 ([2]; 30 min, trihydrate): 96.17%
- Amoxicillin released in solution Mean ([2]; 60 min, trihydrate): 97.60%
- Amoxicillin released in solution #1 ([2]; 60 min, trihydrate): 97.29%
- Amoxicillin released in solution #2 ([2]; 60 min, trihydrate): 99.86%
- Amoxicillin released in solution #3 ([2]; 60 min, trihydrate): 95.65%
- Amoxicillin released in solution Mean ([2]; 90 min, trihydrate): 99.15%
- Amoxicillin released in solution #1 ([2]; 90 min, trihydrate): 99.33%
- Amoxicillin released in solution #2 ([2]; 90 min, trihydrate): 99.64%
- Amoxicillin released in solution #3 ([2]; 90 min, trihydrate): 98.47%
- Average Particle Size D10 [3]: 1.9 μm
- Average Particle Size D50 [3]: 10.0 μm
- Average Particle Size D90 [3]: 22.5 μm
- Average Particle Size D100 [3]: 44.3 μm
- Surface Area Mean ± SD (n = 3) [4]: 2.03 ± 0.15 m^2 · g^−1
Compound: CC1(C)S[C@@H]2[C@H](NC(=O)[C@H](N)c3ccc(O)cc3)C(=O)N2[C@H]1C(=O)O.O.O.O [entry 5, amoxicillin trihydrate]

- Contact Angle Mean ± SD (n = 4) [1]: 107.84 ± 1.72
- Amoxicillin released in solution Mean ([2]; 0 min): 0%
- Amoxicillin released in solution #1 ([2]; 0 min): 0%
- Amoxicillin released in solution #2 ([2]; 0 min): 0%
- Amoxicillin released in solution #3 ([2]; 0 min): 0%
- Amoxicillin released in solution Mean ([2]; 1 min, trihydrate): 70.68%
- Amoxicillin released in solution #1 ([2]; 1 min, trihydrate): 70.98%
- Amoxicillin released in solution #2 ([2]; 1 min, trihydrate): 72.37%
- Amoxicillin released in solution #3 ([2]; 1 min, trihydrate): 68.67%
- Amoxicillin released in solution Mean ([2]; 3 min, trihydrate): 79.56%
- Amoxicillin released in solution #1 ([2]; 3 min, trihydrate): 82.73%
- Amoxicillin released in solution #2 ([2]; 3 min, trihydrate): 76.25%
- Amoxicillin released in solution #3 ([2]; 3 min, trihydrate): 79.68%
- Amoxicillin released in solution Mean ([2]; 5 min, trihydrate): 82.60%
- Amoxicillin released in solution #1 ([2]; 5 min, trihydrate): 84.40%
- Amoxicillin released in solution #2 ([2]; 5 min, trihydrate): 78.46%
- Amoxicillin released in solution #3 ([2]; 5 min, trihydrate): 84.94%
- Amoxicillin released in solution Mean ([2]; 10 min, trihydrate): 85.67%
- Amoxicillin released in solution #1 ([2]; 10 min, trihydrate): 85.63%
- Amoxicillin released in solution #2 ([2]; 10 min, trihydrate): 82.85%
- Amoxicillin released in solution #3 ([2]; 10 min, trihydrate): 88.53%
- Amoxicillin released in solution Mean ([2]; 15 min, trihydrate): 88.11%
- Amoxicillin released in solution #1 ([2]; 15 min, trihydrate): 87.94%
- Amoxicillin released in solution #2 ([2]; 15 min, trihydrate): 85.45%
- Amoxicillin released in solution #3 ([2]; 15 min, trihydrate): 90.95%
- Amoxicillin released in solution Mean ([2]; 30 min, trihydrate): 96.85%
- Amoxicillin released in solution #1 ([2]; 30 min, trihydrate): 96.08%
- Amoxicillin released in solution #2 ([2]; 30 min, trihydrate): 96.66%
- Amoxicillin released in solution #3 ([2]; 30 min, trihydrate): 97.81%
- Amoxicillin released in solution Mean ([2]; 60 min, trihydrate): 99.37%
- Amoxicillin released in solution #1 ([2]; 60 min, trihydrate): 99.56%
- Amoxicillin released in solution #2 ([2]; 60 min, trihydrate): 98.85%
- Amoxicillin released in solution #3 ([2]; 60 min, trihydrate): 99.69%
- Amoxicillin released in solution Mean ([2]; 90 min, trihydrate): 98.76%
- Amoxicillin released in solution #1 ([2]; 90 min, trihydrate): 97.01%
- Amoxicillin released in solution #2 ([2]; 90 min, trihydrate): 99.48%
- Amoxicillin released in solution #3 ([2]; 90 min, trihydrate): 99.78%
- Average Particle Size D10 [3]: 1.9 μm
- Average Particle Size D50 [3]: 10.0 μm
- Average Particle Size D90 [3]: 22.4 μm
- Average Particle Size D100 [3]: 38.9 μm
- Surface Area Mean ± SD (n = 3) [4]: 1.69 ± 0.07 m^2 · g^−1
Compound: CC1(C)S[C@@H]2[C@H](NC(=O)[C@H](N)c3ccc(O)cc3)C(=O)N2[C@H]1C(=O)O.O.O.O [entry 6, amoxicillin trihydrate]
